Literature values in patent publication US6462226B1, “Process for the preparation of 4,5-diamino shikimic acid derivatives” (priority 1999, dated 2002).

System: viral neuraminidase
Settings: J. C. Rohloff et al., J.Org.Chem. 63, 1998, 4545-4550; WO 98/07685

## CCOC(=O)C1=C[C@@H](OC(CC)CC)[C@H](NC(C)=O)[C@@H](N)C1 [Example 1, Ethyl (3R, 4R, 5S)-4-acetamido-5-amino-3-(1-ethylpropoxy)-1-cyclohexene-1-carboxylate]
  inhibition of viral neuraminidase: potent inhibitors
